Experimental data reported in article PMC6271935, “Synthesis and Broad-Spectrum Antiviral Activity of Some Novel Benzo-Heterocyclic Amine Compounds” (Molecules, 2014).
Several values for one entry are separate records, joined by “and”; a condition that tells them apart may be missing. Equal values may be shown once.

Legend:
HCV = assay: Anti-HCV assay in Huh7.5 cells, intracellular HCV RNA by real time RT-PCR; type: cell-based; details: Hepatitis C virus, 96 h
MDCK cells = assay: Cytotoxicity in MDCK cells (CPE); type: cell-based, Canine; details: 48 h, Reed & Muench
Description: (§1) The cytotoxicity of the compounds in MDCK, Vero and HepG2.2.15 cells was monitored via cytopathic effect (CPE) assays. The MDCK and Vero cells (2.5 × 10^4 /well) were plated in a 96-well plate. Following a 24 h hold period, the monolayer of cells was incubated in the presence of various concentrations of the test compounds. […] The TC50 value was calculated using Reed & Muench analysis.

Cox B3 = assay: organism not typed; type: cell-based, Coxsackie viruses (Cox B3 Nancy strain); details: Vero
HBV = assay: Anti-HBV assay in HepG2.2.15 cells, viral DNA by real time PCR; type: cell-based, Hepatitis B virus; details: for IC50: Hepatitis B virus, HepG2.2.15, 144 h, intracellular viral DNA, 3 + 3 days
Description: The synthesized target compounds were assayed for their broad spectrum antiviral activity towards influenza A, HBV, HCV and Cox B3 virus in vitro. […] The inhibitory activities towards HBV and HCV were tested by real time PCR, and lamivudine (3TC) and teleprevir were used as positive controls, respectively.
The anti-HBV activities of test compounds and a positive control drug were tested in HepG2.2.15 cells. The HepG2.2.15 cells were cultured in 96-well plates and treated with the test compounds at 37 °C for 3 days. The medium was removed, and fresh medium containing the test compounds was added for an additional 3 days. The cells were harvested and intracellular DNA was extracted. The inhibition of viral DNA replication in treated cells versus untreated cells was determined by real time PCR.

Huh7.5 cells = assay: Cytotoxicity in Huh7.5 cells (MTT); type: cell-based, human; details: 96 h
Description: The Huh7.5 cells (1 × 10^4 cells/well) were plated in 96-well plates. Six hours later the culture media was replaced with fresh medium containing the test compounds at various concentrations. Cytotoxicity was evaluated with the 3-(4,5-dimethylthiazol-2-yl)-2,5-diphenyltetrazolium bromide (MTT) assay after 96 h.
Huh7.5 cells were seeded at a density of 3 × 10^4 cells/cm^2. After 24 h of incubation, the cells were infected with an HCV viral stock (approximately 45 IU per cell) and simultaneously treated with Telaprevir, the test compounds, or the solvent control. The culture medium was removed 96 h after inoculation, and the total intracellular RNA and total intracellular proteins were extracted with a Qiagen Kit according to the manufacturer’s instructions. Intracellular HCV RNA was quantified using a one-step real time RT-PCR kit (Invitrogen). Cytotoxicity was tested by the MTT assay, and IC50 values were calculated by the Reed and Muench methods.

Vero cells = assay: Cytotoxicity in Vero cells (CPE); details: 48 h, Reed & Muench
Description: as §1

HepG2.2.15 cells = assay: Cytotoxicity in HepG2.2.15 cells (CPE); type: cell-based, human; details: 3 + 3 days
Description: Cells were cultured for 3 days at 37 °C in a 5% CO2 atmosphere in an incubator, and the medium was replaced with fresh medium containing the test compounds for an additional 3 days. The cells were subsequently monitored by CPE and the TC50 value was calculated using Reed and Muench analysis.

[1] = tested on: Influenza A/hanfang/359/95; assay: microbe, parasite or virus in culture; type: cell-based; details: Influenza A virus, MDCK
[2] = tested on: influenza A, HCV, Cox B3 virus and HBV; assay: Broad-spectrum antiviral panel (summary over all four antiviral assays); type: cell-based; details: range/approximate value over influenza A, read-out: IC50 over the entire virus panel

Structure (SMILES) | IC50 (HCV) [µM] | TC50 (50% cytotoxic concentration), Influenza A/hanfang/359/95 (MDCK cells) [µM] | IC50 (Cox B3) [µM] | anti-HBV activity (in words) (HBV) | IC50 (HBV) [µM] | TC50 (50% cytotoxic concentration), HCV (Huh7.5 cells) [µM] | TC50 (50% cytotoxic concentration), Cox B3 (Vero cells) [µM] | TC50 (50% cytotoxic concentration), HBV (HepG2.2.15 cells) [µM] | IC50 [1] [µM] | melting point [°C] | IC50 [2]
C(=C\c1ccccc1)/CNc1ccc2ncsc2c1 [3e, (E)-benzothiazol-6-yl-(3-phenyl-allyl)-amine] | 9.75 | 24.10 | 1.16 | did not exhibit any activity | > 5.56 | 43.58 | 20.05 | 9.62 | 8.6 | 99 to 101 | –
COc1ccccc1/C=C/CNc1ccc2ncsc2c1 [3f, (E)-benzothiazol-6-yl-[3-(2-methoxy-phenyl)-allyl]-amine] | 5.04 | 21.66 | 3.21 | – | 5.06 | 54.99 | 12.48 | 28.87 | 4.15 | 107 to 109 | 3.21 to 5.06 µM and ~5 µM
Cc1ccc(CNc2ccc3ncsc3c2)o1 [3g, Benzothiazol-6-yl-(5-methylfuran-2-ylmethyl)-amine] | 34.9 | 94.60 | 5.03 | – | 0.7 | 138.38 | 65.57 | 21.48 | 26.2 | 52 to 54 | 0.71 to 34.9 µM
Clc1ccc(CNc2ccc3ncsc3c2)s1 [3i, Benzothiazol-6-yl-(5-chlorothiophen-2-ylmethyl)-amine] | 9.81 | 27.42 | 2.53 | – | > 5.56 | 38.24 | 13.18 | 9.62 | 3.42 | 104 to 106 | –
c1ncc(CNc2ccc3ncsc3c2)cn1 [3j, Benzothiazol-6-yl-pyrimidin-5-ylmethyl-amine] | > 66.7 | 826.44 | 53 | – | > 16.7 | >200 | 826.44 | 28.87 | 214 | 127 to 129 | –
Cc1ccc(CNc2ccc3nc[nH]c3c2)o1 [4b, (3H-Benzoimidazol-5-yl)-(5-methyl-furan-2-ylmethyl)-amine] | 24.4 | 440.02 | 48.9 | complete loss of antiviral activity | > 50 | >200 | 254.07 | >50 | 21.4 | 75 to 77 | –
